According to US6743795B1, “3-nitropyridine derivaives and the pharmaceutical compositions containing said derivatives” (Dong Wha Pharm. Ind. Co. Ltd., priority 1999, dated 2004):
Where two headings read alike, the source gives them in different places.

Key:
HepG2 cells = assay: Cytotoxicity test on HepG2 cells (MTT); type: cell-based
Description: (§1) <Experiment 4> Cytotoxicity Test

HBV polymerase = molecular target: T1, HBV polymerase (Hepatitis B virus genotype A2 subtype adw2, UniProt P03159); assay: In vitro reverse transcription activity of HBV polymerase (ELISA-type, DIG/biotin nucleotides); type: biochemical; conditions: for inhibition at 0.01 µg/mL / inhibition at 0.1 µg/mL / inhibition at 1 µg/mL: read-out: Inhibition activity on HBV-RT (%)
T1 construct: made in house; host or cells: E. coli

HBV = assay: Proliferation of HBV in HBV producing cell line HepG 2.2.15 (competitive PCR of culture supernatant); type: cell-based, Hepatitis B virus; conditions: HepG 2.2.15, one week
Method: <Experiment 2> Inhibitory Effect on the Proliferation of HBV in HBV Producing Cell Line
The following experiment was performed to determine inhibitory effects of compounds of formula 1 on the proliferation of HBV producing cell line.
To test for antiviral effect, replication and proliferation of HBV were measured in HepG 2.2.15, a human liver cancer cell line.
The cell concentration was adjusted to 1×10^5 cells/ml and 1 ml was added to each well of a 24-well cell culture plate, which was then kept in a culture box for 3-4 days at 37° C. under 5% CO2 until cells grew sufficiently, changing culture medium everyday. When the cells matured sufficiently, the test compounds were added to the final concentrations of 0.01, 0.1, and 1 μg/ml. One week after the addition of test compounds, the culture solution was centrifuged at 5,000 rpm for 10 min. 25 μl of supernatant was transferred to a new tube and 5 μl of lysis solution [0.54N NaOH, 0.06% NP40] was added to each tube. After keeping the tube at 37° C. for 1 hr, 30 μl of neutralizing solution [0.09N HCl 0.1MTris-HCl, pH7.4] was added as a reaction solution for competitive polymerase chain reaction (PCR).
PCR was performed using genetic sequence of HBV core protein as a matrix. PCR reaction was carried out by adding 1 unit of Taq polymerase enzyme to 25 pmol of each primer, 250 μM dNTP, 5 μl of PCR reaction solution [0.54N NaOH, 0. 06% NP40, 0.09N HCl, 0.1M Tris-HCl, pH 7.4].
DNA polymerized by PCR was electrophoresed on Agarose gel and quantitatively analyzed using an image analyzer (Gel Doc 1000, Bio-Rad) in order to evaluate the effect of compounds of the present invention on the reduction of HBV proliferation.
3TC (lamivudine) was used as a positive control at the same concentrations as those of the test compounds. The percentage of reduction in HBV proliferation was calculated using the group without test compound as a control and the results are represented in Table 4.

[1] = molecular target: T2, HIV reverse transcriptase (Human immunodeficiency virus type 1 group M subtype B, UniProt P03366); assay: In vitro HIV reverse transcriptase activity (non-radioactive RT assay kit); type: biochemical
T2 construct: purchased Boehringer Mannheim
Method: <Experiment 3> Inhibitory Effect on the In Vitro HIV Enzyme Activities in Reverse Transcription
The following in vitro experiments were done to determine the effect of compounds of formula 1 on the reduction of HIV enzyme activities in reverse transcription.
Non-radioactive reverse transcriptase assay kit (Boehringer Mannheim) was used in the measurement of in vitro transcriptase activities. 20 μl (40 ng) of HIV transcriptase and 20 μl of reaction mixture containing matrix-primer hybrid poly(A)oligo(dT)15, DIG(digoxigenin)-dUTP, biotin-dUTP, and TTP were added to wells coated with streptavidin. Test compounds were also added at the final concentrations of 0.1 and 1 μg/ml and allowed to react at 37° C. for 1 hr. At this time, DNA is formed from RNA by the action of HIV reverse transcriptase, forming bonds with streptavidin coated on the bottom of wells because of digoxigenin and biotin moieties attached to nucleotides.
When the reaction was completed, each well was washed with 250 μl of cleaning buffer (pH7.0) for 30sec. five times to remove remaining impurities. 200 μl of anti-DIG-POD […] was added to each well, allowed to react at 37° C. for 1 hr and washed as above to remove impurities. 200 μl of ABTS™, a substrate for peroxidase, was added to each well and allowed to react at room temperature for 30 min. Absorbance at 405 nm was then read for each solution using ELISA reader and used for quantitative determination of inhibitory effect on the HIV transcriptase activities. The percentage of reduction in the activities of HIV reverse transcriptase was calculated using the group without test compound as control and the results are represented in Table 5.

[2] = Cytotoxicity test on HepG2 cells (MTT); type: cell-based; conditions: human; HepG2 cells, MTT; read-out: Cytotoxicity on HepG2, IC50 (50% Inhibitory Concentration)
Description: as §1

[3] = Hepatitis B virus, HepG2.2.15, 168 h, 0.1 μg/ml, read-out: Inhibitory effect on the HBV proliferation: Inhibition activity on HBV-RT (%)
[4] = Hepatitis B virus, HepG2.2.15, 168 h, 1 μg/ml, read-out: Inhibitory effect on the HBV proliferation: Inhibition activity on HBV-RT (%)

T1 sequence (P03159 whole entry): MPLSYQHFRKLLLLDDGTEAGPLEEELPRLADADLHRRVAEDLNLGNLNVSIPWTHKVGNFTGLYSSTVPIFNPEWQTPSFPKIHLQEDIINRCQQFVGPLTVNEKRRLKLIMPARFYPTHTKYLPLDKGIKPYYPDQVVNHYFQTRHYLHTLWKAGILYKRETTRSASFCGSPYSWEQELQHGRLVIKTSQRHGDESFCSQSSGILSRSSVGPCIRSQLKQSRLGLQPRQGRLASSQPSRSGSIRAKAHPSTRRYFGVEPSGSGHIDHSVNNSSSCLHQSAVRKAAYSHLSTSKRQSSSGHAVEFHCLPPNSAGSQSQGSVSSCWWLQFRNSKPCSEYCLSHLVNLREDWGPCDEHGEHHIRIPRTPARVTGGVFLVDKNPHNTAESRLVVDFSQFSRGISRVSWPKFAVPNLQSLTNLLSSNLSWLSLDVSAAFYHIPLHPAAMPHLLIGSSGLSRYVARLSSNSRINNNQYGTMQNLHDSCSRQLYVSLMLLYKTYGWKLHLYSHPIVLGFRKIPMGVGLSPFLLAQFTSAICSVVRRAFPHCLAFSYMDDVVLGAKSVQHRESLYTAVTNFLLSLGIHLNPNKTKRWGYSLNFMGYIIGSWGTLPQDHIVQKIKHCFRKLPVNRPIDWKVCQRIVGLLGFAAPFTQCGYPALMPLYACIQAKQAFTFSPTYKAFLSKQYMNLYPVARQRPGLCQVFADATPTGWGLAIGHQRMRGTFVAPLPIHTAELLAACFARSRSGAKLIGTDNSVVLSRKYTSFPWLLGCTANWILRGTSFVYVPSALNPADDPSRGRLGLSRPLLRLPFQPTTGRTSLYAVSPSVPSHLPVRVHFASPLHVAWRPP

Compound | Cytotoxicity on HepG2, IC50 (50% Inhibitory Concentration) (HepG2 cells) | Cytotoxicity on HepG2, MCD (Minimal Cytotoxic Concentration) (HepG2 cells) | Inhibition activity on HBV-RT (%) (HBV polymerase; 0.01 μg/ml test compound) | Inhibition activity on HBV-RT (%) (HBV polymerase; 0.1 μg/ml test compound) | Inhibition activity on HBV-RT (%) (HBV polymerase; 1 μg/ml test compound) | Inhibitory effect on the HBV proliferation: Inhibition activity on HBV-RT (%) (HBV; 0.01 μg/ml) | Inhibitory effect on the HBV proliferation: Inhibition activity on HBV-RT (%) (HBV; 0.1 μg/ml) | Inhibitory effect on the HBV proliferation: Inhibition activity on HBV-RT (%) (HBV; 1 μg/ml) | Inhibitory effect on the activities of HIV reverse transcriptase: Inhibition activity on HIV-RT (%) ([1]; 0.1 μg/ml test compound) | Inhibitory effect on the activities of HIV reverse transcriptase: Inhibition activity on HIV-RT (%) ([1]; 1 μg/ml test compound) | inhibition at 0.01 µg/mL (HBV polymerase; 0.01 μg/ml test compound) | inhibition at 0.1 µg/mL (HBV polymerase; 0.1 μg/ml test compound) | inhibition at 1 µg/mL (HBV polymerase; 1 μg/ml test compound) | melting point | inhibition at 0.01 µg/mL (HBV; Hepatitis B virus, HepG2.2.15, 168 h, 0.01 μg/ml, read-out: Inhibitory effect on the HBV proliferation: Inhibition activity on HBV-RT (%)) | inhibition at 0.1 µg/mL (HBV; [3]) | inhibition at 1 µg/mL (HBV; [4]) | Cytotoxicity on HepG2, MCD (Minimal Cytotoxic Concentration) (HepG2 cells; HepG2 cells, MTT) | IC50 [2] | Cytotoxicity on HepG2, IC50 (50% Inhibitory Concentration) (HepG2 cells; HepG2 cells, MTT)
6-ethyl-(2-hydroxyethyl)amino-2-(1H-5-indazolylamino)-3-nitropyridine [Example 11] | >100 µg/mL | 100 µg/mL | 35% | 60% | 85% | 20% | 45% | 83% | 46% | 67% |  |  |  |  |  |  |  |  |  | 
C[C@@H](CCO)Nc1ccc([N+](=O)[O-])c(Nc2ccc3[nH]ncc3c2)n1 [Example 12, 6-[(1S)-1-(hydroxyethyl)ethylamino]-2-(1H-5-indazolylamino)-3-nitropyridine] |  |  |  |  |  |  |  |  | 40% | 64% | 38% | 56% | 90% | > 270 °C | 29% | 48% | 85% |  |  | 
COc1ccc([N+](=O)[O-])c(Nc2ccc3cn[nH]c3c2)n1 [Example 2, 2-(1H-6-indazolylamino)-6-methoxy-3-nitropyridine] |  |  |  |  |  |  |  |  |  |  | 12% | 50% | 76% |  |  | 40% | 72% | 100 µg/mL | > 100 µg/mL | 
CC(C)Nc1ccc([N+](=O)[O-])c(Nc2ccc3cn[nH]c3c2)n1 [Example 6, 2-(1H-6-indazolylamino)-6-isopropyl amino-3-nitropyridine] |  |  | 49% | 76% | 91% | 33% | 72% | 90% | 50% | 69% |  |  |  |  |  |  |  | 100 µg/mL |  | >100 µg/mL
